Measurements as given in patent US12162878B2 (HINOVA PHARMACEUTICALS INC., priority 2018, dated 2024).

These compounds were tested on CWR22RV1 cells (assay: Inhibition of proliferation of CWR22RV1 cells (CCK-8)). Conditions: Homo sapiens, CWR22Rv1, 144 h, 6 days.
Type: cell-based, human
Description: • CWR22RV1 cell line (Cell Bank of Chinese Academy of Sciences, TCHu100) • FBS (Gibco, Cat. No. 10099-141) • 0.01M PBS (Biosharp, Cat. No. 162262) • RIPM1640 (Hyclone, Cat. No. 308090.01) • Penicillin-Streptomycin (Hyclone, Cat. No. SV30010) • Cell counting kit-8 (Signalway Antibody, Cat. No. CP002) • DMSO (Sigma, Cat. No. D5879) • Centrifuge Tube, 15 ml (Excell Bio, Cat. No. CS015-0001) • Cell Culture Dish, (Excell Bio, Cat. No. CS016-0128) • 96-well cell culture cluster (Corning, Cat. No. 3599) • 2. Experimental method (1) Preparation of Buffer
1) CWR22RV1 cells were subcultured in cell culture medium, and the cells in good growth condition were seeded in a 96-well plate, 80 μL for each well, thus the number of cells per well was 1500, then the plate was cultured overnight in a 37° C., 5% CO2 cell incubator.
2) The drug was prepared with dimethyl sulfoxide (DMSO) as a 30 mM stock solution. Prior to use, the solution was diluted 3 times with DMSO, and then diluted with a 3-fold gradient to obtain 9 concentration gradients. Then, each concentration of the compound was further diluted 200 times with the culture solution (to ensure that DMSO concentration in the culture system was 0.1%), 2 repeat wells for each concentration. The diluted solution of each compound (20 μL) was added to the cell culture well (with a final concentration of 10 μM, 3.3 μM, 1.1 μM . . . ), and shaken gently for mixing. In addition, three negative control wells containing only cells and three blank control wells containing only culture medium (20 μL DMSO diluted 200 times with culture medium being added to six wells) were included.
(1) After culturing for 6 days, 10 μL CCK-8 was added to each well and cultured for additional 2.5 h in a 37° C., 5% CO2 cell incubator.
(2) The absorbance (OD value) at 450 nm was measured with a multifunctional microplate reader.
(3) The data was analyzed by the Dose-response-inhibition equation in the software GraphPad Prism6, and the IC50 value was obtained.
Compound CCS(=O)(=O)Nc1ccc(N2CCC3(CC3)C2)c(-c2cn(C)c(=O)c3[nH]ccc23)c1 [Compound 7, N-(3-(6-methyl-7-oxo-6,7-dihydro-1H-pyrrolo[2,3-c]pyridin-4-yl)-4-(5-aza-spiro[2.4]heptan-5-yl)phenyl)ethylsulfonamide] has an IC50 of 18 nM. Work on CCS(=O)(=O)Nc1ccc(N2CCC3(CC2)CC3)c(-c2cn(C)c(=O)c3[nH]ccc23)c1 [Compound 8] yielded an IC50 of 6 nM. For CCS(=O)(=O)Nc1ccc(N2CCCC3(CC3)C2)c(-c2cn(C)c(=O)c3[nH]ccc23)c1 [Compound 9, N-(3-(6-methyl-7-oxo-6,7-dihydro-1H-pyrrolo[2,3-c]pyridin-4-yl)-4-(5-aza-spiro[2.5]octan-5-yl)phenyl)ethylsulfonamide], the IC50 was 30 nM. Cn1cc(-c2cc(NS(=O)(=O)C3CC3)ccc2N2CC3(CCC3)C2)c2cc[nH]c2c1=O [Compound 10, N-(3-(6-methyl-7-oxo-6,7-dihydro-1H-pyrrolo[2,3-c]pyridin-4-yl)-4-(2-aza-spiro[3.3]heptan-2-yl)phenyl)cyclopropanesulfonamide] gave an IC50 of 29 nM. In the case of Cn1cc(-c2cc(NS(C)(=O)=O)ccc2N2CC3(CCC3)C2)c2cc[nH]c2c1=O [Compound 11, N-(3-(6-methyl-7-oxo-6,7-dihydro-1H-pyrrolo[2,3-c]pyridin-4-yl)-4-(2-aza-spiro[3.3]heptan-2-yl)phenyl)methanesulfonamide], the IC50 is reported as 30 nM. In the case of Cn1cc(-c2cc(NS(=O)(=O)C3COC3)ccc2N2CC3(CCC3)C2)c2cc[nH]c2c1=O [Compound 12, N-(3-(6-methyl-7-oxo-6,7-dihydro-1H-pyrrolo[2,3-c]pyridin-4-yl)-4-(2-aza-spiro[3.3]heptan-2-yl)phenyl)oxetane-3-sulfonamide], the IC50 is reported as 89 nM. CCCCS(=O)(=O)Nc1ccc(N2CC3(CCC3)C2)c(-c2cn(C)c(=O)c3[nH]ccc23)c1 [Compound 13, N-(3-(6-methyl-7-oxo-6,7-dihydro-1H-pyrrolo[2,3-c]pyridin-4-yl)-4-(2-aza-spiro[3.3]heptan-2-yl)phenyl)butane-1-sulfonamide] was tested, and the IC50 was 79 nM. CCS(=O)(=O)Nc1ccc(N2CC3(CCC3)C2)c(-c2cn(C)c(=O)c3[nH]ccc23)c1 [Compound 14, N-(3-(6-methyl-7-oxo-6,7-dihydro-1H-pyrrolo[2,3-c]pyridin-4-yl)-4-(2-aza-spiro[3.3]heptan-2-yl)phenyl)ethanesulfonamide] showed an IC50 of 31 nM. For Cn1cc(-c2cc(NS(C)(=O)=O)ccc2N2CC3(COC3)C2)c2cc[nH]c2c1=O [Compound 15, N-(3-(6-methyl-7-oxo-6,7-dihydro-1H-pyrrolo[2,3-c]pyridin-4-yl)-4-(2-oxa-6-aza-spiro[3.3]heptan-6-yl)phenyl)methanesulfonamide], the IC50 was 650 nM. In the case of CCS(=O)(=O)Nc1ccc(N2CC3(COC3)C2)c(-c2cn(C)c(=O)c3[nH]ccc23)c1 [Compound 16, N-(3-(6-methyl-7-oxo-6,7-dihydro-1H-pyrrolo[2,3-c]pyridin-4-yl)-4-(2-oxa-6-aza-spiro[3.3]heptan-6-yl)phenyl)ethanesulfonamide], the IC50 is reported as 380 nM. With CCCCS(=O)(=O)Nc1ccc(N2CC3(COC3)C2)c(-c2cn(C)c(=O)c3[nH]ccc23)c1 [Compound 17, N-(3-(6-methyl-7-oxo-6,7-dihydro-1H-pyrrolo[2,3-c]pyridin-4-yl)-4-(2-oxa-6-aza-spiro[3.3]heptan-6-yl)phenyl)butan-1-sulfonamide] the IC50 was 440 nM. Cn1cc(-c2cc(NS(=O)(=O)C3CC3)ccc2N2CC3(COC3)C2)c2cc[nH]c2c1=O [Compound 18, N-(3-(6-methyl-7-oxo-6,7-dihydro-1H-pyrrolo[2,3-c]pyridin-4-yl)-4-(2-oxa-6-aza-spiro[3.3]heptan-6-yl)phenyl)cyclopropanesulfonamide] was tested, and the IC50 was 520 nM. CCOC(=O)C1CC12CCN(c1ccc(NS(=O)(=O)CC)cc1-c1cn(C)c(=O)c3[nH]ccc13)CC2 (centres unmarked) [Compound 19] gave an IC50 of 410 nM. With CCS(=O)(=O)Nc1ccc(N2CCC3(CC2)CC3C(=O)O)c(-c2cn(C)c(=O)c3[nH]ccc23)c1 (centres unmarked) [Compound 20, 6-(4-(ethylsulfonamide)-2-(6-methyl-7-oxo-6,7-dihydro-1H-pyrrolo[2,3-c]pyridin-4-yl)phenyl)-6-aza-spiro[2.5]octan-1-carboxylic acid] the IC50 was 550 nM. For Cn1cc(-c2cc(S(C)(=O)=O)ccc2N2CCC3(CC3)C2)c2cc[nH]c2c1=O [Compound 24, 6-methyl-4-(5-(methylsulfonyl)-2-(5-aza-spiro[2.4]heptan-5-yl)phenyl)-1H-pyrrolo[2,3-c]pyridin-7(6H)-one], the IC50 was 17 nM. CCS(=O)(=O)c1ccc(N2CCC3(CC3)C2)c(-c2cn(C)c(=O)c3[nH]ccc23)c1 [Compound 25, 4-(5(ethylsulfonyl)-2-(5-aza-spiro[2.4]heptan-5-yl)phenyl)-6-methyl-1H-pyrrolo[2,3-c]pyridin-7(6H)-one] was tested, and the IC50 was 26 nM. In the case of Cn1cc(-c2cc(S(C)(=O)=O)ccc2N2CCC3(CC2)CC3)c2cc[nH]c2c1=O [Compound 26, 6-methyl-4-(5(methylsulfonyl)-2-(6-aza-spiro[2.5]octan-6-yl)phenyl)-1H-pyrrolo[2,3-c]pyridin-7(6H)-one], the IC50 is reported as 6 nM. Compound Cn1cc(-c2cc(S(C)(=O)=O)ccc2N2CCCC3(CC3)C2)c2cc[nH]c2c1=O [Compound 27, 6-methyl-4-(5(methylsulfonyl)-2-(5-aza-spiro[2.5]octan-5-yl)phenyl)-1H-pyrrolo[2,3-c]pyridin-7(6H)-one] has an IC50 of 31 nM. Cn1cc(-c2cc(S(=O)(=O)C3CC3)ccc2N2CCCC3(CC3)C2)c2cc[nH]c2c1=O [Compound 28, 4-(5-(cyclopropylsulfonyl)-2-(5-aza-spiro[2.5]octan-5-yl)phenyl)-6-methyl-1H-pyrrolo[2,3-c]pyridin-7(6H)-one] was tested, and the IC50 was 36 nM. Cn1cc(-c2cc(S(=O)(=O)C3CC3)ccc2N2CC3(CCC3)C2)c2cc[nH]c2c1=O [Compound 29, 4-(5-(cyclopropylsulfonyl)-2-(2-aza-spiro[3.3]heptan-2-yl)phenyl)-6-methyl-1H-pyrrolo[2,3-c]pyridin-7(6H)-one] gave an IC50 of 45 nM. Compound Cn1cc(-c2cc(S(C)(=O)=O)ccc2N2CC3(CCC3)C2)c2cc[nH]c2c1=O [Compound 30, 6-methyl-4-(5-(methylsulfonyl)-2-(2-aza-spiro[3.3]heptan-2-yl)phenyl)-1H-pyrrolo[2,3-c]pyridin-7(6H)-one] has an IC50 of 38 nM. Cn1cc(-c2cc(S(=O)(=O)C3COC3)ccc2N2CC3(CCC3)C2)c2cc[nH]c2c1=O [Compound 31, 6-methyl-4-(5-(oxetane-3-ylsulfonyl)-2-(2-aza-spiro[3.3]heptan-2-yl)phenyl)-1H-pyrrolo[2,3-c]pyridin-7(6H)-one] showed an IC50 of 50 nM. CCCCS(=O)(=O)c1ccc(N2CC3(CCC3)C2)c(-c2cn(C)c(=O)c3[nH]ccc23)c1 [Compound 32] was tested, and the IC50 was 65 nM. CCS(=O)(=O)c1ccc(N2CC3(CCC3)C2)c(-c2cn(C)c(=O)c3[nH]ccc23)c1 [Compound 33, 4-(5-(ethylsulfonyl)-2-(2-aza-spiro[3.3]heptan-2-yl)phenyl)-6-methyl-1H-pyrrolo[2,3-c]pyridin-7(6H)-one] gave an IC50 of 45 nM. In the case of Cn1cc(-c2cc(S(C)(=O)=O)ccc2N2CC3(COC3)C2)c2cc[nH]c2c1=O [Compound 34, 6-methyl-4-(5-(methylsulfonyl)-2-(2-oxa-6-aza-spiro[3.3]heptan-6-yl)phenyl)-1H-pyrrolo[2,3-c]pyridin-7(6H)-one], the IC50 is reported as 380 nM. CCS(=O)(=O)c1ccc(N2CC3(COC3)C2)c(-c2cn(C)c(=O)c3[nH]ccc23)c1 [Compound 35, 4-(5-(ethylsulfonyl)-2-(2-oxa-6-aza-spiro[3.3]heptan-6-yl)phenyl)-6-methyl-1H-pyrrolo[2,3-c]pyridin-7(6H)-one] showed an IC50 of 440 nM. CCCCS(=O)(=O)c1ccc(N2CC3(COC3)C2)c(-c2cn(C)c(=O)c3[nH]ccc23)c1 [Compound 36, 4-(5-(butylsulfonyl)-2-(2-oxa-6-aza-spiro[3.3]heptan-6-yl)phenyl)-6-methyl-1H-pyrrolo[2,3-c]pyridin-7(6H)-one] was tested, and the IC50 was 560 nM. Cn1cc(-c2cc(S(=O)(=O)C3CC3)ccc2N2CC3(COC3)C2)c2cc[nH]c2c1=O [Compound 37, 4-(5-(cyclopropylsulfonyl)-2-(2-oxa-6-aza-spiro[3.3]heptan-6-yl)phenyl)-6-methyl-1H-pyrrolo[2,3-c]pyridin-7(6H)-one] was tested, and the IC50 was 490 nM. Work on CCOC(=O)C1CC12CCN(c1ccc(S(C)(=O)=O)cc1-c1cn(C)c(=O)c3[nH]ccc13)CC2 (centres unmarked) [Compound 38, ethyl 6-(2-(6-methyl-7-oxo-6,7-dihydro-1H-pyrrolo[2,3-c]pyridin-4-yl)-4-(methylsulfonyl)phenyl)-6-azaspiro[2.5]octane-1-carboxylate] yielded an IC50 of 410 nM.
